Reference: patent publication US11421145B2, “Oil recovery methods using a formulation containing an unsaturated zwitterionic surfactant and a polymer” (King Fahd University of Petroleum and Minerals, priority 2019, dated 2022)
“Also recorded” adds a separate entry of the source.

Assay: Long-term thermal stability: aging at 90° C. for 15 days, phase behavior, NMR, FTIR
Type: physicochemical
Description: The short-term thermal stability of the unsaturated surfactant was assessed using thermogravimetric analysis (TGA). The thermal stability for a longer period (2 weeks) was determined by FTIR and NMR. The synthesized unsaturated surfactant was dried and heated at 10° C./min in an SDT-Q600 instrument (TA Instruments) from room temperature to 600° C. under nitrogen atmosphere. The thermal stability for a longer period was determined by aging 1 wt % aqueous solution of the unsaturated surfactant at 90° C. for 15 days. FTIR, ^13C NMR, and ^1H NMR were used to identify the structural changes in the unsaturated surfactant after aging. A Nicolet 6700 spectrometer was used for FTIR analysis of the unsaturated surfactant, while a JEOL 500 MHz spectrometer was used for obtaining the NMR spectra.
For long-term thermal stability, 1 wt % surfactant solution was aged in sealed aging tubes at 90° C. for 15 days. […] The two methyl carbons directly attached to the quaternary nitrogen [—CH2—N^+—(CH3)2—CH2—] were detected at δ=50.8 ppm and the two methylene carbons directly attached to quaternary nitrogen [—CH2—N^+—(CH3)2—CH2—] at δ=62.2 and δ=62.7 ppm. The olefinic carbons in the unsaturated surfactant tail appeared at δ=129.6 and δ=130.0 ppm. The amide carbonyl group [—CH2—C═O—NH] resonated at δ=175.1 ppm. The peaks appearing in the ^13C-NMR spectra of the sample agreed with the proposed structure of the unsaturated surfactant. […] The carbons of two methyl groups connected with the central positively charged nitrogen [—CH2—N^+(CH3)2—CH2—] still present in the aged sample and were detected at δ=50.8 ppm. Similarly, the carbons of two methylene groups attached to the central positively charged nitrogen [—CH2—N^+(CH3)2—CH2—] were also detected at δ=62.2 and δ=62.7 ppm. […] In the ^1H-NMR spectrum of the unsaturated surfactant before aging (FIG. 5), the terminal methyl protons [—(CH2)n—CH3)] was detected at δ=0.84 ppm and the methylene protons [—(CH2)n—CH3)] in the unsaturated surfactant tail resonated at δ=1.23 ppm. […]

long-term thermal stability (90° C., 15 days, phase behavior, TGA, FTIR, NMR): excellent long-range thermal stability
Compound: CCCCCCCC/C=C\CCCCCCCC(=O)NCCC[N+](C)(C)CCCS(=O)(=O)[O-] [unsaturated surfactant, 3-(N-oleamidopropyl-N,N-dimethylammonium) propane sulfonate]
appearance of solution after aging (1 wt % surfactant solution, sealed tubes, 90° C., 15 days): remained clear and there was no phase separation or precipitation
structure after aging (1H/13C NMR, FTIR) (aged 15 days at 90° C.): survival of original structure; also recorded: no structure degradation
